Data as given in article PMC3914656 (Journal of cancer science & therapy, 2013).
Structures can show the parent of a compound that is named as a salt.

Assays:
p-gp = experiment: qRT-PCR gene expression of p-gp in treated Caco-2 cells; type: cell-based; settings: for expression of p-gp (qRT-PCR): Caco-2 cells, 24-hrs treatment, actin as control
[1] = Stability in perfusion solution; type: physicochemical; settings: Phosphate Buffer Saline pH 7.4 with phenol red, room temperature, 6 hrs, RP-HPLC
[2] = Rat in-situ single-pass colon perfusion, effective permeability coefficient; settings: N-Nitroso N-methyl urea induced colon cancer, Figure 3

Row | Compound | expression of p-gp (qRT-PCR) (p-gp) | decrease in the expression of p-glycoprotein (P-gp) (p-gp; qRT-PCR and Western blot, curcumin treated colon cancer cells) | stability in perfusion samples [1] | permeability coefficient in cancerous colon in comparison to normal colon [2]
1 | COc1cc(/C=C/C(=O)CC(=O)/C=C/c2ccc(O)c(OC)c2)ccc1O [curcumin] | significant inhibition | about 15 fold |  | 
2 | CC(C)NCC(O)COc1cccc2ccccc12 (stereo not drawn) [propranolol] |  |  | stable | 
3 | CCc1c2c(nc3ccc(OC(=O)N4CCC(N5CCCCC5)CC4)cc13)-c1cc3c(c(=O)n1C2)COC(=O)[C@]3(O)CC [Irinotecan, Irinotecan Hydrochloride] | increased |  | stable | decreased
